Data from ChEMBL document CHEMBL5634121, “Discovery of novel G9a/GLP covalent inhibitors for the treatment of triple-negative breast cancer” (Eur J Med Chem, 2023).

Assays:
[1] = biological target: T1, Histone-lysine N-methyltransferase EHMT1 (Homo sapiens, UniProt Q9H9B1); assay: Inhibition of GLP (unknown origin)
T1 sequence (Q9H9B1 whole entry): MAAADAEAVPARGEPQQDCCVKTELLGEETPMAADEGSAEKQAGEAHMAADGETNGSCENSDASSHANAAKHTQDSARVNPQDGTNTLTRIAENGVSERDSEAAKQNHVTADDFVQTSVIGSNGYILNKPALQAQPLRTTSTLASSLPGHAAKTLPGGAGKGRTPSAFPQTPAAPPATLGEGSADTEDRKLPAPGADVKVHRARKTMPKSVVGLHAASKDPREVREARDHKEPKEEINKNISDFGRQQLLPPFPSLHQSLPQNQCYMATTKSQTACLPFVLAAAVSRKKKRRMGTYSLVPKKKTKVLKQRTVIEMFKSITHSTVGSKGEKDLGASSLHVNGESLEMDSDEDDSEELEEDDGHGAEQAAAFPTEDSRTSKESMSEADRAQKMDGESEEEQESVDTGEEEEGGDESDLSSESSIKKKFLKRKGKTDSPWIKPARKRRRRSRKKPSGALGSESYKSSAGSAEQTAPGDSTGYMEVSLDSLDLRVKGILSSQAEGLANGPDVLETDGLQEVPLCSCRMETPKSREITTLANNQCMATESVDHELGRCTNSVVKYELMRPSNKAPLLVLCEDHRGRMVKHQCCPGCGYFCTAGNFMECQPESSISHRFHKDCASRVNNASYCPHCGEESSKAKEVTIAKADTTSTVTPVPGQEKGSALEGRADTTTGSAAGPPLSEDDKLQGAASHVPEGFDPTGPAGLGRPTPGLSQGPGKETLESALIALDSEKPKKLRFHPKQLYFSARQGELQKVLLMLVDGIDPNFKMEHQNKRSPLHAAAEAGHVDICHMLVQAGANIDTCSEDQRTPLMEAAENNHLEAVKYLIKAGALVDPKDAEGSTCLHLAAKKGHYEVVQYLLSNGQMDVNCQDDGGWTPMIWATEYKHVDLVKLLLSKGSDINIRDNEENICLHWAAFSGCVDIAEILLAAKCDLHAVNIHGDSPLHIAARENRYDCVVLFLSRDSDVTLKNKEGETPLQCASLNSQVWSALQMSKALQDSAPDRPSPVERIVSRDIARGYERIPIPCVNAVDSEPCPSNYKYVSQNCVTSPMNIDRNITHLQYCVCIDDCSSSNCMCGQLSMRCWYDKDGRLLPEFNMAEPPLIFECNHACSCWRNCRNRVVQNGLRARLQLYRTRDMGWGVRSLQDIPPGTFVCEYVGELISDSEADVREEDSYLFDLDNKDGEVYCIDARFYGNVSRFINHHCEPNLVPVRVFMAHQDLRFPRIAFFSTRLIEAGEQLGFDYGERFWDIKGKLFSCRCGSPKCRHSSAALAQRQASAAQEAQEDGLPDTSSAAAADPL

[2] = biological target: Histone-lysine N-methyltransferase EHMT1/EHMT2 (Homo sapiens) (UniProt Q9H9B1+Q96KQ7); assay: Inhibition of G9a/GLP in human MDA-MB-231 cells assessed as reduction in H3K9 dimethylation incubated for 3 days by Western blotting analysis; format: cell-based; conditions: dose 2.5-20 µM, time 3.0 day
Chain of Histone-lysine N-methyltransferase EHMT1/EHMT2 (Homo sapiens) (Q96KQ7 whole entry, looked up, one chain of several): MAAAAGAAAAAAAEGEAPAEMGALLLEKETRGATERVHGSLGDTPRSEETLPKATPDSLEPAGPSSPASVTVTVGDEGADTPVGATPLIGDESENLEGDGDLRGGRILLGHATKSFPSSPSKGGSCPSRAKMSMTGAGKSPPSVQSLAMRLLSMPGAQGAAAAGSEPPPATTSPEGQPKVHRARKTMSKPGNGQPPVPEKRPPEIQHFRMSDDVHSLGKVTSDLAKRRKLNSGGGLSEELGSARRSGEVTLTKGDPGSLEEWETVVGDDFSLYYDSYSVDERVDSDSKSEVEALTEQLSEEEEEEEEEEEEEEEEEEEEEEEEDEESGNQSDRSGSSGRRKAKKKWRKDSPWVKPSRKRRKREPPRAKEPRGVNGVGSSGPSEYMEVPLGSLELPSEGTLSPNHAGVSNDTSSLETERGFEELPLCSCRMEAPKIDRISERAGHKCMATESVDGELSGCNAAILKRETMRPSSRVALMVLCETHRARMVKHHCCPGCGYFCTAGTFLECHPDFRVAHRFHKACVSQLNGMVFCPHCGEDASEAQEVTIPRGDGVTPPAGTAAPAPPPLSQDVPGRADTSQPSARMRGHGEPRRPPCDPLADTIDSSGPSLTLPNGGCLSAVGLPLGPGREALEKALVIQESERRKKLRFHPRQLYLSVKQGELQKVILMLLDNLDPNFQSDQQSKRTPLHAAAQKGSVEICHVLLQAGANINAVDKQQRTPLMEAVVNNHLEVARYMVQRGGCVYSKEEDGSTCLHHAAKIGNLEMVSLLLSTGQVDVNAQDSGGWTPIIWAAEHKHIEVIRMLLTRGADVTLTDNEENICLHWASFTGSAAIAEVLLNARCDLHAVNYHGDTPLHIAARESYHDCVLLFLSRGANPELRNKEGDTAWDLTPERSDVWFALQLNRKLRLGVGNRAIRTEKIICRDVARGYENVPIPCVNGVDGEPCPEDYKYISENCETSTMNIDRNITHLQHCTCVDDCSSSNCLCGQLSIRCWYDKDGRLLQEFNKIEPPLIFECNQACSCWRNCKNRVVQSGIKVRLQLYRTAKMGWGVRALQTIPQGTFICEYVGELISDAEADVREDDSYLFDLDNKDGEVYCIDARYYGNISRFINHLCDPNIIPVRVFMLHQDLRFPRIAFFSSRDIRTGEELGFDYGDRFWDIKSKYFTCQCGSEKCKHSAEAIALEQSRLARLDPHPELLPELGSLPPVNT

[3] = Mean residence time in ICR mouse at 2 mg/kg, iv measured upto 12 hrs by LC-MS/MS analysis; format: ADME, organism-based; conditions: in vivo
MDA-MB-231 [4] = assay: Induction of apoptosis in human MDA-MB-231 cells assessed as viable cells at 5 uM incubated for 72 hrs by Annexin V and PI staining based flow cytometry analysis (reference value: 98.31 %); format: functional; conditions: read-out: Activity
MDA-MB-231 [5] = assay: Induction of apoptosis in human MDA-MB-231 cells assessed as late apoptotic cells at 20 uM incubated for 72 hrs by Annexin V and PI staining based flow cytometry analysis (reference value: 0.45 %); format: functional
MDA-MB-231 [6] = assay: Induction of apoptosis in human MDA-MB-231 cells assessed as early apoptotic cells at 20 uM incubated for 72 hrs by Annexin V and PI staining based flow cytometry analysis (reference value: 0.92 %); format: functional
MDA-MB-231 [7] = assay: Antiproliferative activity against human MDA-MB-231 cells at 1 to 5 nM by MTT assay; format: functional, cell-based; conditions: dose 1-5 nM, time 3-5 day, TDE = time-dependent effect
MDA-MB-231 [8] = assay: Antiproliferative activity against human MDA-MB-231 cells after 5 days by MTT assay; format: functional, cell-based; conditions: MDA-MB-231, 120 h
MDA-MB-231 [9] = assay: Induction of apoptosis in human MDA-MB-231 cells assessed as necrotic cells at 20 uM incubated for 72 hrs by Annexin V and PI staining based flow cytometry analysis (reference value: 0.32 %); format: functional
4T1 = assay: Antiproliferative activity against mouse 4T1 cells incubated for 3 to 5 days by MTT assay; format: functional, cell-based; conditions: Mus musculus, 4T1; read-out: IC50
[10] = Cmax in ICR mouse at 2 mg/kg, iv measured upto 12 hrs by LC-MS/MS analysis; format: ADME, organism-based; conditions: in vivo
MDA-MB-231 [11] = assay: Antiproliferative activity against human MDA-MB-231 cells incubated for 3 to 5 days by MTT assay; format: functional, cell-based; conditions: time 3-5 day
MDA-MB-231 [12] = assay: Induction of apoptosis in human MDA-MB-231 cells assessed as viable cells at 10 uM incubated for 72 hrs by Annexin V and PI staining based flow cytometry analysis (reference value: 98.31 %); format: functional; conditions: read-out: Activity

IC50 [1]: 458 nM
inhibition [2]: Dose-Dependent Effect
MRT [3]: 2.3 h
IC50 (MDA-MB-231 [8]): 598 nM
IC50 (4T1): 4.67 µM
Cmax [10]: 911 ng/mL
SMILES: C=CC(=O)Nc1cccc(-c2nc(NC3CCN(C)CC3)c3cc(OC)c(OC)cc3n2)c1
viability at 5 µM (MDA-MB-231 [4]): 94.6%
Activity (MDA-MB-231 [5]): 34.86%
Activity (MDA-MB-231 [6]): 21.6%
Activity (MDA-MB-231 [7]): Tde
Activity (MDA-MB-231 [9]): 4.23%
Activity (MDA-MB-231 [11]): Dose-Dependent Effect
viability at 10 µM (MDA-MB-231 [12]): 89.1%
